Experimental data reported in ChEMBL document CHEMBL4811295, “The ester derivatives obtained by C-ring modification of podophyllotoxin induce apoptosis and inhibited proliferation in PC-3M cells via down-regulation of PI3K/Akt signaling pathway” (Bioorg Med Chem Lett, 2021).
The source made the active and inactive calls. The rule behind the calls is not given here.

Assays:
PC-3M [1] = assay: Cytotoxicity in human PC-3M cells assessed as inhibition of cell proliferation measured by CCK-8 assay; assay type: functional, cell-based
HMEC = assay: Cytotoxicity in human HMEC cells assessed as inhibition of cell proliferation measured by CCK-8 assay; assay type: functional, cell-based
A549 = assay: Cytotoxicity in human A549 cells assessed as inhibition of cell proliferation measured by CCK-8 assay; assay type: functional, cell-based
MCF7 = assay: Cytotoxicity in human MCF7 cells assessed as inhibition of cell proliferation measured by CCK-8 assay; assay type: functional, cell-based
HepG2 = assay: Cytotoxicity in human HepG2 cells assessed as inhibition of cell proliferation measured by CCK-8 assay; assay type: functional, cell-based
PC-3M [2] = assay: Antiproliferative activity against human PC-3M cells assessed as inhibition of cell proliferation at 1 nM measured after 9 days by Crystal violet staining based colony formation assay; assay type: functional; conditions: time 9.0 day
PC-3M [3] = assay: Induction of apoptosis in human PC-3M cells assessed as viable cells at 1 nM measured after 48 hrs by Annexin V/PI staining based flow cytometry method (reference value: 95.6%); assay type: functional; conditions: read-out: Activity
PC-3M [4] = assay: Induction of apoptosis in human PC-3M cells assessed as early apoptotic cells at 1 nM measured after 48 hrs by Annexin V/PI staining based flow cytometry method (reference value: 1.25%); assay type: functional
PC-3M [5] = assay: Induction of apoptosis in human PC-3M cells assessed as late apoptotic cells at 1 nM measured after 48 hrs by Annexin V/PI staining based flow cytometry method (reference value: 2.88%); assay type: functional
PC-3M [6] = assay: Induction of apoptosis in human PC-3M cells assessed as necrotic cells at 1 nM measured after 48 hrs by Annexin V/PI staining based flow cytometry method (reference value: 0.25%); assay type: functional
PC-3M [7] = assay: Induction of apoptosis in human PC-3M cells assessed as viable cells at 5 nM measured after 48 hrs by Annexin V/PI staining based flow cytometry method (reference value: 95.6%); assay type: functional; conditions: read-out: Activity
PC-3M [8] = assay: Induction of apoptosis in human PC-3M cells assessed as early apoptotic cells at 5 nM measured after 48 hrs by Annexin V/PI staining based flow cytometry method (reference value: 1.25%); assay type: functional
PC-3M [9] = assay: Induction of apoptosis in human PC-3M cells assessed as late apoptotic cells at 5 nM measured after 48 hrs by Annexin V/PI staining based flow cytometry method (reference value: 2.88%); assay type: functional
PC-3M [10] = assay: Induction of apoptosis in human PC-3M cells assessed as necrotic cells at 5 nM measured after 48 hrs by Annexin V/PI staining based flow cytometry method (reference value: 0.25%); assay type: functional
PC-3M [11] = assay: Induction of apoptosis in human PC-3M cells assessed as viable cells at 10 nM measured after 48 hrs by Annexin V/PI staining based flow cytometry method (reference value: 95.6%); assay type: functional; conditions: read-out: Activity
PC-3M [12] = assay: Induction of apoptosis in human PC-3M cells assessed as early apoptotic cells at 10 nM measured after 48 hrs by Annexin V/PI staining based flow cytometry method (reference value: 1.25%); assay type: functional
PC-3M [13] = assay: Induction of apoptosis in human PC-3M cells assessed as late apoptotic cells at 10 nM measured after 48 hrs by Annexin V/PI staining based flow cytometry method (reference value: 2.88%); assay type: functional
PC-3M [14] = assay: Induction of apoptosis in human PC-3M cells assessed as necrotic cells at 10 nM measured after 48 hrs by Annexin V/PI staining based flow cytometry method (reference value: 0.25%); assay type: functional
PC-3M [15] = assay: Induction of apoptosis in human PC-3M cells assessed by apoptotic changes in cells at 1 uM measured after 48 hrs by DAPI staining based microscopic method relative to PPT; assay type: functional, cell-based
PC-3M [16] = assay: Induction of apoptosis in human PC-3M cells assessed by broken nucleus at 10 nM measured after 48 hrs by DAPI staining based microscopic method; assay type: functional, cell-based
PC-3M [17] = assay: Induction of apoptosis in human PC-3M cells assessed by irregular nucleus at 10 nM measured after 48 hrs by DAPI staining based microscopic method; assay type: functional, cell-based
PC-3M [18] = assay: Induction of apoptosis in human PC-3M cells assessed by formation of chromatin fragments at 10 nM measured after 48 hrs by DAPI staining based microscopic method; assay type: functional, cell-based
PC-3M [19] = assay: Induction of apoptosis in human PC-3M cells assessed by formation of apoptotic bodies at 10 nM measured after 48 hrs by DAPI staining based microscopic method; assay type: functional, cell-based
PC-3M [20] = assay: Antiproliferative activity against human PC-3M cells assessed as inhibition of cell proliferation measured after 9 days by Crystal violet staining based colony formation assay; assay type: functional; conditions: dose 5-10 nM, time 9.0 day
PC-3M [21] = assay: Anti-migration activity in human PC-3M cells measured after 24 hrs by microscopy based wound scratch method; assay type: functional, cell-based; conditions: dose 1-10 nM
PC-3M [22] = assay: Inhibition of PI3K in human PC-3M cells assessed as reduction of phosphorylated PI3K expression at 1 to 10 nM measured by western blot assay; assay type: cell-based; conditions: dose 1-10 nM
[23] = molecular target: RAC-alpha serine/threonine-protein kinase (Homo sapiens) (UniProt P31749); assay: Inhibition of Akt in human PC-3M cells assessed as reduction of […] expression at 1 to 10 nM measured by western blot assay; assay type: cell-based; conditions: dose 1-10 nM
RAC-alpha serine/threonine-protein kinase (Homo sapiens), sequence (P31749 whole entry): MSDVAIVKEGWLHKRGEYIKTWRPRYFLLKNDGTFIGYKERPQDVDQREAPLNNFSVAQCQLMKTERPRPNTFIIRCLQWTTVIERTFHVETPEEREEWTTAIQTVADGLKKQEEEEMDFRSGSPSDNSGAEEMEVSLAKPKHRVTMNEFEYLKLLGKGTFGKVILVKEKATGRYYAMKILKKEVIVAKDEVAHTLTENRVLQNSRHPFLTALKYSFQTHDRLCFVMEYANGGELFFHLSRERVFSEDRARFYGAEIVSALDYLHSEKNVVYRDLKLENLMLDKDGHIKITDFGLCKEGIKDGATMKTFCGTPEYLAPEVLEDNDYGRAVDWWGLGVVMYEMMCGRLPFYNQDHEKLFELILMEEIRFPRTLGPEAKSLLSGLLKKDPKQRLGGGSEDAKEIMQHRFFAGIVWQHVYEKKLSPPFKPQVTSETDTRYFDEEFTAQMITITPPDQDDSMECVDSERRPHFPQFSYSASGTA

PC-3M [24] = assay: Induction of apoptosis in human PC-3M cells assessed as decrease of Bcl-2 expression at 1 to 10 nM measured by western blot assay; assay type: functional, cell-based; conditions: dose 1-10 nM
PC-3M [25] = assay: Induction of apoptosis in human PC-3M cells assessed as increase of Bax expression at 1 to 10 nM measured by western blot assay; assay type: functional, cell-based; conditions: dose 1-10 nM
PC-3M [26] = assay: Induction of apoptosis in human PC-3M cells assessed as increase of cleaved caspase-3 expression at 1 to 10 nM measured by western blot assay; assay type: functional, cell-based; conditions: dose 1-10 nM

COc1cc([C@@H]2c3cc4c(cc3[C@H](OC(=O)[C@H](C)NC(=O)OC(C)(C)C)[C@H]3COC(=O)[C@H]23)OCO4)cc(OC)c1OC
IC50 (PC-3M [1]): 1170 nM | IC50 (HMEC): 8420 nM | IC50 (A549): 28.4 nM | IC50 (MCF7): 40700 nM | IC50 (HepG2): 84900 nM

COc1cc([C@@H]2c3cc4c(cc3[C@H](OC(=O)[C@H](Cc3c[nH]c5ccccc35)NC(=O)OC(C)(C)C)[C@H]3COC(=O)[C@H]23)OCO4)cc(OC)c1OC
IC50 (PC-3M [1]): 6.07 nM | IC50 (HMEC): 1800 nM | IC50 (A549): 314 nM | IC50 (MCF7): > 200000 nM | IC50 (HepG2): > 200000 nM

CCCCCCCCCCCCCCCCCC(=O)O[C@H]1c2cc3c(cc2[C@@H](c2cc(OC)c(OC)c(OC)c2)[C@H]2C(=O)OC[C@@H]21)OCO3
IC50 (PC-3M [1]): 2600 nM | IC50 (HMEC): 3070 nM | IC50 (A549): 7320 nM | IC50 (MCF7): > 200000 nM | IC50 (HepG2): 141000 nM

C/C=C/C=C/C(=O)O[C@H]1c2cc3c(cc2[C@@H](c2cc(OC)c(OC)c(OC)c2)[C@H]2C(=O)OC[C@@H]21)OCO3
IC50 (PC-3M [1]): 1100 nM | IC50 (HMEC): 424 nM | IC50 (A549): 143 nM | IC50 (MCF7): 127000 nM | IC50 (HepG2): 2340 nM

CCCCCCCCCCCCCC(=O)O[C@H]1c2cc3c(cc2[C@@H](c2cc(OC)c(OC)c(OC)c2)[C@H]2C(=O)OC[C@@H]21)OCO3
IC50 (PC-3M [1]): 1720 nM | IC50 (HMEC): 2750 nM | IC50 (A549): 1070 nM | IC50 (MCF7): > 200000 nM | IC50 (HepG2): 88700 nM

COc1cc([C@@H]2c3cc4c(cc3[C@H](O)[C@H]3COC(=O)[C@H]23)OCO4)cc(OC)c1OC [PODOFILOX]
IC50 (PC-3M [1]): 235 nM | IC50 (HMEC): 1340 nM | IC50 (A549): 5.37 nM | IC50 (MCF7): > 200000 nM | IC50 (HepG2): > 200000 nM | Activity (PC-3M [2]): inactive | viability at 0.001 µM (PC-3M [3]): 94.4% | Activity (PC-3M [4]): 1.71% | Activity (PC-3M [5]): 3.78% | Activity (PC-3M [6]): 0.083% | viability at 0.005 µM (PC-3M [7]): 87.6% | Activity (PC-3M [8]): 3.17% | Activity (PC-3M [9]): 9.11% | Activity (PC-3M [10]): 0.17% | viability at 0.01 µM (PC-3M [11]): 75.7% | Activity (PC-3M [12]): 3.31% | Activity (PC-3M [13]): 20.9% | Activity (PC-3M [14]): 0.11%

COc1cc([C@@H]2c3cc4c(cc3[C@H](OC(=O)CNC(=O)OC(C)(C)C)[C@H]3COC(=O)[C@H]23)OCO4)cc(OC)c1OC
IC50 (PC-3M [1]): 1.28 nM | IC50 (HMEC): 768 nM | IC50 (A549): 9.54 nM | IC50 (MCF7): 144000 nM | IC50 (HepG2): 50700 nM | Activity (PC-3M [15]): Active | Activity (PC-3M [16]): Dose-Dependent Effect | Activity (PC-3M [17]): Dose-Dependent Effect | Activity (PC-3M [18]): Dose-Dependent Effect | Activity (PC-3M [19]): Dose-Dependent Effect | Activity (PC-3M [20]): Dose-Dependent Effect | Activity (PC-3M [21]): Dose-Dependent Effect | viability at 0.001 µM (PC-3M [3]): 92.5% | Activity (PC-3M [4]): 1.86% | Activity (PC-3M [5]): 5.53% | Activity (PC-3M [6]): 0.14% | viability at 0.005 µM (PC-3M [7]): 83.4% | Activity (PC-3M [8]): 3.74% | Activity (PC-3M [9]): 12.7% | Activity (PC-3M [10]): 0.11% | viability at 0.01 µM (PC-3M [11]): 64.4% | Activity (PC-3M [12]): 5.41% | Activity (PC-3M [13]): 29.9% | Activity (PC-3M [14]): 0.21% | inhibition (PC-3M [22]): Active | inhibition [23]: Active | Activity (PC-3M [24]): Dose-Dependent Effect | Activity (PC-3M [25]): Dose-Dependent Effect | Activity (PC-3M [26]): Dose-Dependent Effect

COc1cc([C@@H]2c3cc4c(cc3[C@H](OC(=O)c3cccs3)[C@H]3COC(=O)[C@H]23)OCO4)cc(OC)c1OC
IC50 (PC-3M [1]): 770 nM | IC50 (HMEC): 672 nM | IC50 (A549): 68.4 nM | IC50 (MCF7): 26500 nM | IC50 (HepG2): 26900 nM

COc1cc([C@@H]2c3cc4c(cc3[C@H](OC(=O)[C@@H]3CCCN3C(=O)OC(C)(C)C)[C@H]3COC(=O)[C@H]23)OCO4)cc(OC)c1OC
IC50 (PC-3M [1]): 1720 nM | IC50 (HMEC): 3230 nM | IC50 (A549): 600 nM | IC50 (MCF7): 124000 nM | IC50 (HepG2): 50800 nM

COc1cc([C@@H]2c3cc4c(cc3[C@H](OC(=O)[C@H](Cc3ccccc3)NC(=O)OC(C)(C)C)[C@H]3COC(=O)[C@H]23)OCO4)cc(OC)c1OC
IC50 (PC-3M [1]): 20.1 nM | IC50 (HMEC): 2460 nM | IC50 (A549): 23.4 nM | IC50 (MCF7): 72400 nM | IC50 (HepG2): > 200000 nM

COc1cc([C@@H]2c3cc4c(cc3[C@H](OC(=O)c3ccc(Br)s3)[C@H]3COC(=O)[C@H]23)OCO4)cc(OC)c1OC
IC50 (PC-3M [1]): 619 nM | IC50 (HMEC): 1770 nM | IC50 (A549): 504 nM | IC50 (MCF7): > 200000 nM | IC50 (HepG2): 33900 nM
